For one assay, the system named is male Balb/c mice. Kind of assay: Territorial Resident/Intruder aggression test. In kind it is in vivo. On the procedure:
Data presented in this report indicate that long-term expression of Peptide YY3-36, an agonist of NPY Y receptors with higher affinity for the Y2 receptor, abolish aggressive behavior in mice. To test these observations, we used the territorial Resident/Intruder (R/I) aggressive paradigm (6), a standard test for evaluating rodent aggressive behavior. The test was applied on three different occasions using different intruders. Tests were recorded and analyzed in a blind manner using the Observer v5.0 software (Noldus Information Technology) (see videos, Supplementary data) (7).
Behavioral studies: Aggression territorial-Intruder test were performed on week 24 after the treatment (6). Briefly, PYY-, or GFP-treated resident mice were individually housed for at least two weeks prior to testing. Bedding from cages was not changed during the testing period to avoid unnecessary stress. On the day of the experiment, a smaller size intruder was placed into the resident cage for 10 minutes and the resident's behavior was recorded with a video camera. Each experiment was repeated 3 times on three different occasions and with different intruders. The videos from the experiments were analyzed for non-aggressive and aggressive behavior by an expert in a blind manner using The Observer v5.0 software (Noldus Information Technology) (7).
Data was reported in mean±SEM.

The subject of the next assay is mice. Kind of assay: PYY mouth spray, food intake after 24 hours fasting. In kind it is in vivo. Here is the method:
Synthetic PYY was purchased from Bachem, Inc USA (Cat #H-6042) and diluted in sterile H2O. Sterile un-used perfume sample vials (Saphora) were utilized to administer PYY in the form of a mouth spray. It was estimated that the volume of one spray approximates to about […].
Mice were conditioned three times to 24 hours fasting starting at the beginning of the dark cycle and ending at the end of the light cycle. At the end of the fasting cycle and as a part of conditioned routine, a sterile water spray had been administered into the mouth. All the experiments were done during the first hour of the dark cycle after fasting. Once the dark cycle started, mice were sprayed once with either PYY or sterile H2O in a total volume of […] per spray. After the treatment, mice were returned to their cages and ten minutes later pre-weighted chow was provided. One hour later, the amount of consumed chow had been recorded by measuring the leftover amount. When the experiments were repeated, mice were fasted only once a week with the control and experimental groups rotated.

With “PYY3-36: endogenous NPY Y2 receptor agonist; salivary level raised long-term by rAAV-PYY in the treated mice”, in the assay on male Balb/c mice (vs control mice), the chase duration entry is given as “decrease” and the chase events entry is on record as “decrease”. In the assay with male Balb/c mice (vs controls), the attack duration entry is recorded as “significant decrease”, the attack latency result is recorded as “significant increase”, the “normal social interactions manifested by sniffing” value is given as “did not change” and the threat duration result is “significant decrease”. Also, in the assay on male Balb/c mice (vs controls), the threat events entry was “significant decrease”. Besides, the attack events with male Balb/c mice (week 24 after treatment, n=5, mean±SEM) was determined as 0.07±0.067 events per 10 min. The “decrease in the number of attack events compared to controls” value in the assay on male Balb/c mice (week 24 after treatment, n=5, p<0.05) is 44 fold.
For the substance “PYY: Synthetic PYY purchased from Bachem (Cat #H-6042), diluted in sterile H2O, given as a mouth spray [Peptide YY]”, the “dose response of PYY mouth spray on FI after one hour” value with mice (mouth spray) was “significant PYY dose response effect”. Besides, in the assay with mice (one mouth spray, 5 ug per 100 g of body weight, after 24 h fasting, average, P=0.03), the “less food consumed in one hour compared to H2O spray control” value is reported as 15%.

The values are drawn from patent US12109251B2, “Satiation peptide administration” (University of Florida Research Foundation, Incorporated, priority 2009, dated 2024).
